Experimental data as given in ChEMBL document CHEMBL5058642, “Data for DCP probe TP-051” (2022).

Tests used:
Rattus norvegicus [1] = organism: Rattus norvegicus; experiment: Testosterone Eurofins-Panlabs radioligand binding assay; design: ligand concentration 1.5 nM; details: Compound concentration 10.0 uM
[2] = biological target: B1 bradykinin receptor (Homo sapiens) (UniProt P46663); experiment: Inhibition of Bradykinin B1 at 10 µM in the Eurofins-Panlabs radioligand binding assay (Eurofins_assay_212510); details: Compound concentration 10.0 uM
[3] = biological target: Voltage-dependent N-type calcium channel subunit alpha-1B (Homo sapiens) (UniProt Q00975); experiment: Inhibition of Calcium Channel N-Type at 10 µM in the Eurofins-Panlabs radioligand binding assay (Eurofins_assay_216000); details: Rattus norvegicus; Compound concentration 10.0 uM
[4] = biological target: T1, GABA-A receptor; anion channel (Rattus norvegicus) (UniProt O09028+P15431+P18506+P18508+P19969+P20236+P23574+P23576+P28471+P28473+P30191+P62813+P63079+P63138+Q91ZM7+Q9ES14); experiment: Inhibition of GABAA, Muscimol, Central at 10 µM in the Eurofins-Panlabs radioligand binding assay (Eurofins_assay_226500); type: protein-complex assay; details: Compound concentration 10.0 uM
[5] = biological target: 5-hydroxytryptamine receptor 4 (Homo sapiens) (UniProt Q13639); experiment: Inhibition of Serotonin (5-Hydroxytryptamine) 5-HT4 at 10 µM in the Eurofins-Panlabs radioligand binding assay (Eurofins_assay_272000); details: Cavia porcellus; Compound concentration 10.0 uM
Rattus norvegicus [6] = organism: Rattus norvegicus; experiment: Adrenergic α2, Non-selective Eurofins-Panlabs radioligand binding assay; type: protein assay; details: Compound concentration 10.0 uM
[7] = biological target: Type-1 angiotensin II receptor (Homo sapiens) (UniProt P30556); experiment: Angiotensin AT1 Eurofins-Panlabs radioligand binding assay; details: Compound concentration 10.0 uM
[8] = biological target: Gamma-aminobutyric acid type B receptor subunit 1 (Homo sapiens) (UniProt Q9UBS5); experiment: GABAB1B Eurofins-Panlabs radioligand binding assay; details: Compound concentration 10.0 uM
Chain of Gamma-aminobutyric acid type B receptor subunit 1 (Homo sapiens) (Q9UBS5 whole entry): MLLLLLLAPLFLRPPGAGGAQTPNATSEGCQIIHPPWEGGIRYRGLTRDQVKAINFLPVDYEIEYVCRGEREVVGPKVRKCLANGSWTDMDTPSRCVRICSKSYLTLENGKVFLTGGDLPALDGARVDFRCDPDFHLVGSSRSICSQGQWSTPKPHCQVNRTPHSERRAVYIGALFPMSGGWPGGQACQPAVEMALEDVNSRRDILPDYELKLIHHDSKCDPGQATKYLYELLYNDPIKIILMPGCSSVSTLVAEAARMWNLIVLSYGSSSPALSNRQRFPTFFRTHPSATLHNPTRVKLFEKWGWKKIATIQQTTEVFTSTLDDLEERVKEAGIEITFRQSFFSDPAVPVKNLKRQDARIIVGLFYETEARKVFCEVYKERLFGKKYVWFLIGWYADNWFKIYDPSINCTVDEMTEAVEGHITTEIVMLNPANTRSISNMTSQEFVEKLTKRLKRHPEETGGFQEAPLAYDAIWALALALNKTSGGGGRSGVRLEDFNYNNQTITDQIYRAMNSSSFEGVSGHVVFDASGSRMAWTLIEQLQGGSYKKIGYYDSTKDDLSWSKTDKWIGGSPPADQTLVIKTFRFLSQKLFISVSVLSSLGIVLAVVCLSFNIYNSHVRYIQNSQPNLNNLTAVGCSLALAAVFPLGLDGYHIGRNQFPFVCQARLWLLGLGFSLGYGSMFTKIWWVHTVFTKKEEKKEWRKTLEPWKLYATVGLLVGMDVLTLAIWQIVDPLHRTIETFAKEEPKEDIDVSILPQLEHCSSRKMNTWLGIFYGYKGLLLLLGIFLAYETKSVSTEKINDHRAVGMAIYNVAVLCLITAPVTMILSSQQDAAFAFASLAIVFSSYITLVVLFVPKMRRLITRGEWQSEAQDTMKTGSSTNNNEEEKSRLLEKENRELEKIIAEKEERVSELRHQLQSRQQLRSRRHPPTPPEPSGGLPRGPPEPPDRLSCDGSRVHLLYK

[9] = biological target: Gamma-aminobutyric acid type B receptor subunit 1 (Homo sapiens) (UniProt Q9UBS5); experiment: GABAB1A Eurofins-Panlabs radioligand binding assay; details: Compound concentration 10.0 uM
[10] = biological target: Glucocorticoid receptor (Homo sapiens) (UniProt P04150); experiment: Glucocorticoid Eurofins-Panlabs radioligand binding assay; details: Compound concentration 10.0 uM
[11] = biological target: T2, Muscarinic acetylcholine receptor M1 (Homo sapiens) (UniProt P11229); experiment: Muscarinic M1 Eurofins-Panlabs radioligand binding assay; details: Compound concentration 10.0 uM
T2 sequence (whole entry): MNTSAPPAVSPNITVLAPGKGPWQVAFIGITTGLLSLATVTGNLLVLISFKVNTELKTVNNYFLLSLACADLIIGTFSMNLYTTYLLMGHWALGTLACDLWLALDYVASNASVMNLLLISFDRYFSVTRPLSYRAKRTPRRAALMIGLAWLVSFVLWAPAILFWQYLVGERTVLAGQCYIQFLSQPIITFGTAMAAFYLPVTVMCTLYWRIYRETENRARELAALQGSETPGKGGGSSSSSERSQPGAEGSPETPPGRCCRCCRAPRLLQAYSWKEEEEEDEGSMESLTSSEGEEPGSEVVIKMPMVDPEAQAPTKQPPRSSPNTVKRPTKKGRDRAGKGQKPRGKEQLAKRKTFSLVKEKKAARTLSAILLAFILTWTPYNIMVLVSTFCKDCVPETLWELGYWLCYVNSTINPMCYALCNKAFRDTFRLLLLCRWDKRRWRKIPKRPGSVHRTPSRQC

[12] = biological target: Muscarinic acetylcholine receptor M3 (Homo sapiens) (UniProt P20309); experiment: Muscarinic M3 Eurofins-Panlabs radioligand binding assay; details: Compound concentration 10.0 uM
[13] = biological target: 5-hydroxytryptamine receptor 1A (Homo sapiens) (UniProt P08908); details: Compound concentration 10.0 uM
[14] = biological target: 5-hydroxytryptamine receptor 1B (Homo sapiens) (UniProt P28222); details: Compound concentration 10.0 uM
[15] = biological target: 5-hydroxytryptamine receptor 1E (Homo sapiens) (UniProt P28566); details: Compound concentration 10.0 uM
Chain of 5-hydroxytryptamine receptor 1E (Homo sapiens) (P28566 whole entry): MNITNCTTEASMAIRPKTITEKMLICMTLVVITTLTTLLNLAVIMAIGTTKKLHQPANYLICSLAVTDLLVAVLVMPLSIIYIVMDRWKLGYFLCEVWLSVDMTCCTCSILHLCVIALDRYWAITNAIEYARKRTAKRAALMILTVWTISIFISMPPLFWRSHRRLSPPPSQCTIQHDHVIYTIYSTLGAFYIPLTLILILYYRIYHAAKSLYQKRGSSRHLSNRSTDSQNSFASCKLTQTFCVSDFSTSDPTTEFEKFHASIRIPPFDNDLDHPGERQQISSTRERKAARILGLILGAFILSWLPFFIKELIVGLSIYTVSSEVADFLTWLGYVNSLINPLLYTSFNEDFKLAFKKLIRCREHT

D(3) dopamine receptor = D(3) dopamine receptor (Homo sapiens, UniProt P35462); details: Compound concentration 10.0 uM
Chain of D(3) dopamine receptor (P35462 whole entry): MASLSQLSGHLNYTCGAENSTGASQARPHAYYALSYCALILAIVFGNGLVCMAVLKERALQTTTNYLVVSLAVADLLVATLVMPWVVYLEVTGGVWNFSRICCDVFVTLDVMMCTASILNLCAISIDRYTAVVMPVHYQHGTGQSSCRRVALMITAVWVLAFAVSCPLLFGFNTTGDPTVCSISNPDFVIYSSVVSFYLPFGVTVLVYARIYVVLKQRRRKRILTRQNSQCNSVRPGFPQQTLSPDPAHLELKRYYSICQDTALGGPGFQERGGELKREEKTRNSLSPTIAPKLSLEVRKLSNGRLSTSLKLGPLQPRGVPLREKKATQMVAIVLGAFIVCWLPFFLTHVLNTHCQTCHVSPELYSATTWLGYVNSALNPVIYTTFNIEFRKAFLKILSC

[16] = biological target: Mu-type opioid receptor (Homo sapiens) (UniProt P35372); details: Compound concentration 10.0 uM
Chain of Mu-type opioid receptor (Homo sapiens) (P35372 whole entry): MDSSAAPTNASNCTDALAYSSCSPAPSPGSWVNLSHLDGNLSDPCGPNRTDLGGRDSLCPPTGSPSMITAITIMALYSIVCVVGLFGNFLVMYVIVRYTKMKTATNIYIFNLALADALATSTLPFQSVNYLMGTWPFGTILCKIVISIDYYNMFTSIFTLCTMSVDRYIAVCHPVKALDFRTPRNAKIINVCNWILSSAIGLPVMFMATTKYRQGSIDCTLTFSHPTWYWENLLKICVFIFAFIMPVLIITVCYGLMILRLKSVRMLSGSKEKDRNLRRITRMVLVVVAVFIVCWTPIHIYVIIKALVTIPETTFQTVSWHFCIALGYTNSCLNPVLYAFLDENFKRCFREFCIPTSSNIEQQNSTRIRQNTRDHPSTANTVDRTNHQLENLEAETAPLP

[17] = biological target: Kappa-type opioid receptor (Homo sapiens) (UniProt P41145); details: Compound concentration 10.0 uM
[18] = biological target: Histamine H1 receptor (Homo sapiens) (UniProt P35367); details: Compound concentration 10.0 uM
Chain of Histamine H1 receptor (Homo sapiens) (P35367 whole entry): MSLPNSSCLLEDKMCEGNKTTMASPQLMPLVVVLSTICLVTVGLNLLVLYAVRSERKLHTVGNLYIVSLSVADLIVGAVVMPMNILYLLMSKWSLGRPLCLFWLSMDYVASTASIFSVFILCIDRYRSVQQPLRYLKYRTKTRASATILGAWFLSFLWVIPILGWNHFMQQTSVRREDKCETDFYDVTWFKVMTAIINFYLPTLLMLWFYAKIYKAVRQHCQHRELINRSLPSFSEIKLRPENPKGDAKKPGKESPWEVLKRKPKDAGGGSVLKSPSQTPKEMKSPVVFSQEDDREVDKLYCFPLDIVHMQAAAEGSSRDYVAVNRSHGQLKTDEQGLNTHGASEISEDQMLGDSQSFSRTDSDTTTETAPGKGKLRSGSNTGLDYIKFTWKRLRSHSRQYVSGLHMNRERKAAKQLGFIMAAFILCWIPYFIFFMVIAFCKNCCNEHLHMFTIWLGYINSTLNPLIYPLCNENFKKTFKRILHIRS

[19] = biological target: Histamine H2 receptor (Homo sapiens) (UniProt P25021); details: Compound concentration 10.0 uM
Chain of Histamine H2 receptor (Homo sapiens) (P25021 whole entry): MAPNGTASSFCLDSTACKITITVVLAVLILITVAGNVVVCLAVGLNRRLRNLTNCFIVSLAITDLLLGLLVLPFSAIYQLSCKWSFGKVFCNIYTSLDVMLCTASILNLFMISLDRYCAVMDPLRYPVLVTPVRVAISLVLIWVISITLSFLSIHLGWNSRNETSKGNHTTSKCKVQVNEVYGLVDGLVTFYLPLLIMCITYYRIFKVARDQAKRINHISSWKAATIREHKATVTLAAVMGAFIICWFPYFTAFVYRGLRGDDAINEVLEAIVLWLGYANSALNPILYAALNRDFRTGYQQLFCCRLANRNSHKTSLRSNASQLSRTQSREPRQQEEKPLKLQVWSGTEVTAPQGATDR

[20] = biological target: Histamine H3 receptor (Homo sapiens) (UniProt Q9Y5N1); details: Compound concentration 10.0 uM
[21] = biological target: Histamine H4 receptor (Homo sapiens) (UniProt Q9H3N8); details: Compound concentration 10.0 uM
[22] = biological target: Alpha-2C adrenergic receptor (Homo sapiens) (UniProt P18825); details: Compound concentration 10.0 uM
Chain of Alpha-2C adrenergic receptor (Homo sapiens) (P18825 whole entry): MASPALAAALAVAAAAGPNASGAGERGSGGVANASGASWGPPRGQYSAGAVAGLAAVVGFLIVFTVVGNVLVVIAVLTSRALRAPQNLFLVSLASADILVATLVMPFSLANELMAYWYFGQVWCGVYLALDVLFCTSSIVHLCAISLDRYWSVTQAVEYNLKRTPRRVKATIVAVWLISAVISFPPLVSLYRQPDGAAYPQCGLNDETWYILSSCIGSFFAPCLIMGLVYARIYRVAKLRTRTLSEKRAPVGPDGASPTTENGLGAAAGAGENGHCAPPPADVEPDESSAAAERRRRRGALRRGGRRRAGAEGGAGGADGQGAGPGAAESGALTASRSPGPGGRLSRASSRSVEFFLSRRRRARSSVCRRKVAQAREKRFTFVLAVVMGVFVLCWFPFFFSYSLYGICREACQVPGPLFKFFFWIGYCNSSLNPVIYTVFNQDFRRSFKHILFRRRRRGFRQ

[23] = biological target: Beta-1 adrenergic receptor (Homo sapiens) (UniProt P08588); details: Compound concentration 10.0 uM
Chain of Beta-1 adrenergic receptor (Homo sapiens) (P08588 whole entry, looked up): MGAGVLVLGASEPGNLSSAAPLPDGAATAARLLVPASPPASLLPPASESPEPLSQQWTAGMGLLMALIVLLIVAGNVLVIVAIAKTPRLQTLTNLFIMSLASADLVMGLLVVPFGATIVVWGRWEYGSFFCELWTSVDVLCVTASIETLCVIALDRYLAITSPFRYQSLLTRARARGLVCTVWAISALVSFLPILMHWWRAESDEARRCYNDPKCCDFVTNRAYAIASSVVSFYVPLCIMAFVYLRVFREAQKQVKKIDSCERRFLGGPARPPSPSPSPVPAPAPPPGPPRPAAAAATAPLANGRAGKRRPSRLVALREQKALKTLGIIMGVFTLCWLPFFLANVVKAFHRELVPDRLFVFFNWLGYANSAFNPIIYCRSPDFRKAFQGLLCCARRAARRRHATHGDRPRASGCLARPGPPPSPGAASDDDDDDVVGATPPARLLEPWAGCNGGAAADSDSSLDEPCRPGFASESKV

[24] = biological target: T1, GABA-A receptor; anion channel (Rattus norvegicus); details: Compound concentration 10.0 uM
[25] = biological target: Adenosine receptor A1 (Homo sapiens) (UniProt P30542); details: Compound concentration 10.0 uM
[26] = biological target: Adenosine receptor A2a (Homo sapiens) (UniProt P29274); details: Compound concentration 10.0 uM
[27] = biological target: Adenosine receptor A3 (Homo sapiens) (UniProt P0DMS8); details: Compound concentration 10.0 uM
[28] = biological target: Beta-1 adrenergic receptor (Homo sapiens) (UniProt P08588); details: Compound concentration 10.0 uM; remark: listed apart in the source
[29] = biological target: Histamine H1 receptor (Homo sapiens) (UniProt P35367); details: Compound concentration 10.0 uM; remark: listed apart in the source
[30] = biological target: Histamine H2 receptor (Homo sapiens) (UniProt P25021); details: Compound concentration 10.0 uM; remark: listed apart in the source
[31] = biological target: Sodium-dependent noradrenaline transporter (Homo sapiens) (UniProt P23975); details: Compound concentration 10.0 uM
[32] = biological target: D(2) dopamine receptor (Homo sapiens) (UniProt P14416); details: Compound concentration 10.0 uM
[33] = biological target: T1, GABA-A receptor; anion channel (Rattus norvegicus); details: Compound concentration 10.0 uM; remark: listed apart in the source
[34] = biological target: Glutamate receptor 2 (Homo sapiens) (UniProt P42262); details: Rattus norvegicus; Compound concentration 10.0 uM
Chain of Glutamate receptor 2 (Homo sapiens) (P42262 whole entry): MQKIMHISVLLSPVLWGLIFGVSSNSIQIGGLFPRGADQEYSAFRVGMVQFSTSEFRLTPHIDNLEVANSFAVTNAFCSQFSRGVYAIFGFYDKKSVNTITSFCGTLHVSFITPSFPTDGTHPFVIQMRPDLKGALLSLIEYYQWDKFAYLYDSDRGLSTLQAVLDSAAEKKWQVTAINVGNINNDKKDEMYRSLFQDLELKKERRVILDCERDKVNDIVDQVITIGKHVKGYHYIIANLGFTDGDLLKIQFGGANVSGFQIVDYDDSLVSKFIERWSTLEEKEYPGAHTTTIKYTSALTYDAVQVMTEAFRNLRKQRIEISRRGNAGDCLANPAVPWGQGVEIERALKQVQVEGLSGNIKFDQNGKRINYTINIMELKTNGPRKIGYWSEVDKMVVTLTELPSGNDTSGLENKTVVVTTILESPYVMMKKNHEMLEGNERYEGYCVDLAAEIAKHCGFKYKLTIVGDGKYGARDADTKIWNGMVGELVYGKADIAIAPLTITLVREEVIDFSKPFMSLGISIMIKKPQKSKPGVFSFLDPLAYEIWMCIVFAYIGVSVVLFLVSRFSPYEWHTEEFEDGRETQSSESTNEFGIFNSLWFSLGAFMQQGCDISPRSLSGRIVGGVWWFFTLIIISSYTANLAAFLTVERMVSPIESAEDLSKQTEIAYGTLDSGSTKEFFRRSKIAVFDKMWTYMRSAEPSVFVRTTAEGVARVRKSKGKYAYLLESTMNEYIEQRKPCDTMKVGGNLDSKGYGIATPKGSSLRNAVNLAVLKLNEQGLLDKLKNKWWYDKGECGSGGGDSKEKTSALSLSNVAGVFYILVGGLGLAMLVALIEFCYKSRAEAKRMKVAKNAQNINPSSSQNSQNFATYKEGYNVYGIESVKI

| Structure (SMILES) | inhibition (Rattus norvegicus [1]) [%] | inhibition [2] [%] | inhibition [3] [%] | inhibition [4] [%] | inhibition [5] [%] | inhibition (Rattus norvegicus [6]) [%] | inhibition [7] [%] | inhibition [8] [%] | inhibition [9] [%] | inhibition [10] [%] | inhibition [11] [%] | inhibition [12] [%] | inhibition [13] [%] | inhibition [14] [%] | inhibition [15] [%] | inhibition (D(3) dopamine receptor) [%] | inhibition [16] [%] | inhibition [17] [%] | inhibition [18] [%] | inhibition [19] [%] | also measured |
| --- | --- | --- | --- | --- | --- | --- | --- | --- | --- | --- | --- | --- | --- | --- | --- | --- | --- | --- | --- | --- | --- |
| Cc1cc(OC2CCS(=O)(=O)CC2)cc(C)c1-c1cccc(COc2ccc(CCC(=O)O)c(F)c2)c1 | 17 | 14 | -4 | 3 | 8 | 8 | 14 | 1 | 7 | 0 | -9 | 4 | 1.37 | 19.3 | 3.83 | 59.6 | 1.32 | 10.2 | 12 | 5.95 | inhibition [20]: 21.1%; inhibition [21]: 10.8%; inhibition [22]: 5.47%; inhibition [23]: 14.4%; inhibition [24]: 23.7%; inhibition [25]: -1%; inhibition [26]: 5%; inhibition [27]: 5%; inhibition [28]: 5%; inhibition [29]: -7%; inhibition [30]: 26%; inhibition [31]: 22%; inhibition [32]: -2%; inhibition [33]: 21%; inhibition [34]: 4% |
| Cc1cc(OC2CCS(=O)(=O)CC2)cc(C)c1-c1cccc(COc2ccc(C(=O)O)c(F)c2)c1 | 26 | 19 | -9 | 8 | -8 | 6 | 1 | 10 | 20 | 14 | -7 | 1 | -6.09 | 23.2 | -1.42 | 7.34 | -7.84 | 4.04 | -2.18 | 7.66 | inhibition [20]: 6.7%; inhibition [21]: 17.4%; inhibition [22]: -4.04%; inhibition [23]: -0.49%; inhibition [24]: 19.5%; inhibition [25]: -4%; inhibition [26]: 10%; inhibition [27]: 0%; inhibition [28]: -4%; inhibition [29]: 2%; inhibition [30]: 2%; inhibition [31]: 5%; inhibition [32]: -4%; inhibition [33]: 14%; inhibition [34]: -3% |
